# Reference: US8518710B2, “Photon reducing agents for fluorescence assays” (Life Technologies Corporation, priority 1997, dated 2013)
# Test: Absorption maxima of dyes (Table 1)
# Type: physicochemical
row,Compound,Absorption maxima of dyes [nm]
1,Acid Fuchsin,546
2,O=C([O-])C1=NN(c2ccc(S(=O)(=O)[O-])cc2)C(=O)C1N=Nc1ccc(S(=O)(=O)[O-])cc1.[Na+].[Na+].[Na+] (centres unmarked) [Tartrazine],425
3,CCN(CC)c1ccc(C(=C2C=CC(=[N+](CC)CC)C=C2)c2cc(O)c(S(=O)(=O)O)cc2S(=O)(=O)O)cc1 [Patent Blue],635

# The remaining lines, values ahead:
row,Absorption maxima of dyes [nm],Compound
1,513,Acid Red 37
2,607,Cc1cc(-c2ccc(/N=N/c3c(S(=O)(=O)O)cc4cc(S(=O)(=O)O)cc(N)c4c3O)c(C)c2)ccc1/N=N/c1c(S(=O)(=O)O)cc2cc(S(=O)(=O)O)cc(N)c2c1O [Trypan Blue]
